# Measured values reported in patent publication US8129417B2, “Substituted octahydrocyclopenta[C]pyrrol-4-amines as calcium channel blockers” (Abbott Laboratories, priority 2008, dated 2012).
# Biological target: human Cav2.2 (Homo sapiens, UniProt Q00975)
# Assay: Assessment of calcium channel activity using FLIPR (Ca2+ influx in IMR32 cells)
# Assay type: cell-based
# Conditions: 2 μM nifedipine, depolarized with 80 mM KCl
# Procedure: (i) In Vitro Methods—Assessment of Calcium Channel Activity Using FLIPR:
# The IMR32 cells were maintained in MEM media containing 10% (v/v) FBS, 1% (v/v) antibiotic/antimitotic, 1% (v/v) sodium pyruvate and 1% (v/v) MEM NEAA. Following dissociation in 0.05% (v/v) trypsin/EDTA, cells were seeded into black 1×96-well plates (Corning Cellbind) at a density of 1-1.2×10^5 cells/well and incubated in the maintenance media above for 48 hours at 37° C. […] To determine the IC50 values, the percent inhibition of the compound at each concentration was determined relative to the activity in the absence of inhibitor, and data was fitted using non-linear regression sigmoidal dose response curve analysis with GraphPad Prism®.
# [1] = 60 minute pre-incubation with compound
# Sequence of human Cav2.2 (Q00975 whole entry): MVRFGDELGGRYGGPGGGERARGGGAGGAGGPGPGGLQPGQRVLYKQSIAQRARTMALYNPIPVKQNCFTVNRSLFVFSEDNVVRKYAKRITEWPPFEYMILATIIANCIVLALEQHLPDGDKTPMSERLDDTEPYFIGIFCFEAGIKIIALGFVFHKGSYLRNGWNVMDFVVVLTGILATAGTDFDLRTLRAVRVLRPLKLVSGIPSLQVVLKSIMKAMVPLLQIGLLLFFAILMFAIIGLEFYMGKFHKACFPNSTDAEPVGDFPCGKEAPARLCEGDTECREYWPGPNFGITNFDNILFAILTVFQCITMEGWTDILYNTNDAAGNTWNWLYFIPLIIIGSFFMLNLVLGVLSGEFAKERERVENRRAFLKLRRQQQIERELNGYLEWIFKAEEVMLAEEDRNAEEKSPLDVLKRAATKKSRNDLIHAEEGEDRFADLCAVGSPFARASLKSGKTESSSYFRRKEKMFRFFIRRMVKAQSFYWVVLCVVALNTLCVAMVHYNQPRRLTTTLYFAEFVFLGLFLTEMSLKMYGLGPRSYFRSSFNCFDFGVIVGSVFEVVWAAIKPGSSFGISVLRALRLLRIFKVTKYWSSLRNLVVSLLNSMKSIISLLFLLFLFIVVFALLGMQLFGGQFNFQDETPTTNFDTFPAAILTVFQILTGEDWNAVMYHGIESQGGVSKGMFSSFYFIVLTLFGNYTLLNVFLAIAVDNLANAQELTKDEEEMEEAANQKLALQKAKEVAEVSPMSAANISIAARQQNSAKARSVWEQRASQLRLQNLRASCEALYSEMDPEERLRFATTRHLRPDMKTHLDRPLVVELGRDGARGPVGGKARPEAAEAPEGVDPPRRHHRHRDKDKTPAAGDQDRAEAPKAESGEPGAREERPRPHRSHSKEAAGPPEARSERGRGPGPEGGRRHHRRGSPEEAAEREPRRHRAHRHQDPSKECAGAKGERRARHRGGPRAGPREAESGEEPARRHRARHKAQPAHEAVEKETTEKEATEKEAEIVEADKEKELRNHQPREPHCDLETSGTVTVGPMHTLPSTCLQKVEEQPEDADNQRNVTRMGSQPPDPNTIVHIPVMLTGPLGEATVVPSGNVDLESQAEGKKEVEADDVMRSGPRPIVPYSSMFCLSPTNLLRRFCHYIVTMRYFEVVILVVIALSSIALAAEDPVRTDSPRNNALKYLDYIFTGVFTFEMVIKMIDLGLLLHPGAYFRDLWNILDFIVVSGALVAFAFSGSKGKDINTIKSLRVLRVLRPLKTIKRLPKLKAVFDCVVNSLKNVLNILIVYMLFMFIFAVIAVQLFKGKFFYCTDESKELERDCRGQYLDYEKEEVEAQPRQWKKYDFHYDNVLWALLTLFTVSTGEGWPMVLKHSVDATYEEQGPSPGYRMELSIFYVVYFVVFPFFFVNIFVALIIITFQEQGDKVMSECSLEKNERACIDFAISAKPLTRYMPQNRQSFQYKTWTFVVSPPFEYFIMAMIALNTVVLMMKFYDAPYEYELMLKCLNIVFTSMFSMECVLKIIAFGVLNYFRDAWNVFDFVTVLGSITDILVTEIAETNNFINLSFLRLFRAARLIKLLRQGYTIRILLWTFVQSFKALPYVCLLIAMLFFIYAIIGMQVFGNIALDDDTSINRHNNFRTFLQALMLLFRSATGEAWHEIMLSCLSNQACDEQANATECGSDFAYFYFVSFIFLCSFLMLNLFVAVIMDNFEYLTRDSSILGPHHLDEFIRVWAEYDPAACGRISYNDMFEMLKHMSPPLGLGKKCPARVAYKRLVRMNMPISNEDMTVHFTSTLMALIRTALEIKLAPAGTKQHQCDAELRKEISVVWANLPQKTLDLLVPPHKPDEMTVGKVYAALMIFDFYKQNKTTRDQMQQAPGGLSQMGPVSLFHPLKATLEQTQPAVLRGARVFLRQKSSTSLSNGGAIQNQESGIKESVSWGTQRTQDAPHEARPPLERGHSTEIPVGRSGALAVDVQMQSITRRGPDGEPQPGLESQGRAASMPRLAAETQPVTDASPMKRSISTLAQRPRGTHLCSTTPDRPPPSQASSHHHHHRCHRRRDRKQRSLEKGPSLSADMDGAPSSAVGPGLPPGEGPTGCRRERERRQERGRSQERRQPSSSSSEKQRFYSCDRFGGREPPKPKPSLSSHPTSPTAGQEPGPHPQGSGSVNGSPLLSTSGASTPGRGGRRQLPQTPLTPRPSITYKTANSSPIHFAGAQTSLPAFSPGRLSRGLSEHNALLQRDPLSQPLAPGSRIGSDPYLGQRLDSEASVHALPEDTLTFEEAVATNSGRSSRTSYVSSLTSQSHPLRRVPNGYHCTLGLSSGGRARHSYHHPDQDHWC
# Sequence of human Cav2.2 (P54289 25-946 partner limits assumed): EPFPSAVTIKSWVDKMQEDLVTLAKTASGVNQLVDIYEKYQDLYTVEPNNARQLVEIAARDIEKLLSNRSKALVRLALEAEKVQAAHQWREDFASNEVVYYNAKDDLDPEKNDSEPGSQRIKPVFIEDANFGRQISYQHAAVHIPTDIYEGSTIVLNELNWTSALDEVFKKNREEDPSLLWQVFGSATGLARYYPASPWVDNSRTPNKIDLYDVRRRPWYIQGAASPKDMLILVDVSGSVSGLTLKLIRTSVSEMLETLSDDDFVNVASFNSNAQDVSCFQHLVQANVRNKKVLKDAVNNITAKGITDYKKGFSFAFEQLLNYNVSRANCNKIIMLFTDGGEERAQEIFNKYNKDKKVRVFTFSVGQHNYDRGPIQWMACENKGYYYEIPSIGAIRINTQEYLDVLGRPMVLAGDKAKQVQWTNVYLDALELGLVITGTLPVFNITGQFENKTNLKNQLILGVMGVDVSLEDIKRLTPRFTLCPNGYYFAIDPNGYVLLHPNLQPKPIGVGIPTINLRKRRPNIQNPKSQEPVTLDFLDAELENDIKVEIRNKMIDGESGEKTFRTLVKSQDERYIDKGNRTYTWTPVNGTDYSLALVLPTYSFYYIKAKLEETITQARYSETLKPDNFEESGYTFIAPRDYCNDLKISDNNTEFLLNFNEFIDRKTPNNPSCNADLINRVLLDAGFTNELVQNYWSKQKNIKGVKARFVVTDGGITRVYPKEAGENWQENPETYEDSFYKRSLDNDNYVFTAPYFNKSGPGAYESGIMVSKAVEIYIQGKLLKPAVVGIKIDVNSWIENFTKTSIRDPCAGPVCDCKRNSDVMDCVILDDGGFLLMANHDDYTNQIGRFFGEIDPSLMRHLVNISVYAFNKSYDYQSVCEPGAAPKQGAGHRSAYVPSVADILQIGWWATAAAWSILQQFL
# Sequence of human Cav2.2 (P54289 947-1103 partner limits assumed): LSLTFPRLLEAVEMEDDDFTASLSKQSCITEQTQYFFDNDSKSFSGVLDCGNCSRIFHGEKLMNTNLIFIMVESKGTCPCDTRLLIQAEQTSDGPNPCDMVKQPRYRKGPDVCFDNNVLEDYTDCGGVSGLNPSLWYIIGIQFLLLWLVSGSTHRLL
# Sequence of human Cav2.2 (P54284 whole entry partner): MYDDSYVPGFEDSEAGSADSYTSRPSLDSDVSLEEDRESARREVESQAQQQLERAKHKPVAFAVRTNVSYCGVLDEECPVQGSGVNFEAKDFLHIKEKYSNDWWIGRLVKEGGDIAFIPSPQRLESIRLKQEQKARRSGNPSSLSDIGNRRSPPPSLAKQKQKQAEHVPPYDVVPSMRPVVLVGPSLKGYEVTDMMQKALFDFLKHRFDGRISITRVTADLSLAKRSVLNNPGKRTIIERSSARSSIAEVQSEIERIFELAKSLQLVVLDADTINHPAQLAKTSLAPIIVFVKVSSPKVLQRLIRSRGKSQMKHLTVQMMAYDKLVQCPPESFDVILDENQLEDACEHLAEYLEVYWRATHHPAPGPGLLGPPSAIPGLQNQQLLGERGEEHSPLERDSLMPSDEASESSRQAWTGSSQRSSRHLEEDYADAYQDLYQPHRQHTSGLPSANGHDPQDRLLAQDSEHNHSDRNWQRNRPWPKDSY
SMILES,IC50 [1],IC50 (3 minute pre-incubation with compound (*))
"O=S(=O)(c1ccc(C(F)(F)F)cc1)N1C[C@H]2CC[C@H](NCC3CC3)[C@H]2C1 [Example 292, (3aR,4S,6aS)—N-(cyclopropylmethyl)-2-{[4-(trifluoromethyl)phenyl]sulfonyl}octahydrocyclopenta[c]pyrrol-4-amine]",3.91 µM,
"CC(C)N([C@H]1CC[C@@H]2CN(Cc3ccccc3)C[C@@H]21)S(=O)(=O)c1cccc(C(F)(F)F)c1 [Example 555, N-[(3aR,4S,6aS)-2-benzyloctahydrocyclopenta[c]pyrrol-4-yl]-N-isopropyl-3-(trifluoromethyl)benzenesulfonamide]",2.51 µM,
"CCC[C@H](NC)C(=O)N[C@H]1CC[C@@H]2CN(S(=O)(=O)c3cccc(Br)c3)C[C@@H]21 [Example 551, N^1-{(3aR,4S,6aS)-2-[(3-bromophenyl)sulfonyl]octahydrocyclopenta[c]pyrrol-4-yl}-N^2-methyl-L-norvalinamide]",2.49 µM,
"CC(C)[C@@H](C(=O)N[C@@H]1CC[C@H]2CN(Cc3ccccc3)C[C@H]21)N(C)C(=O)OC(C)(C)C [Example 232, tert-butyl(S)-1-((3aS,4R,6aR)-2-benzyloctahydrocyclopenta[c]pyrrol-4-ylamino)-3-methyl-1-oxobutan-2-yl(methyl)carbamate]",3.6 µM,
"CCCN(C(=O)[C@H](CC(C)(C)C)N(C)C(=O)OC(C)(C)C)[C@H]1CC[C@@H]2CN(S(=O)(=O)c3ccc(C(F)(F)F)cc3)C[C@@H]21 [Example 297, tert-butyl(S)-4,4-dimethyl-1-oxo-1-(propyl((3aR,4S,6aS)-2-(4-(trifluoromethyl)phenylsulfonyl)octahydrocyclopenta[c]pyrrol-4-yl)amino)pentan-2-yl(methyl)carbamate]",7.88 µM,
"O=C(N[C@H]1CC[C@H]2CN(S(=O)(=O)CCc3ccccc3)C[C@H]21)C(C1CCCCC1)C1CCCCC1 [Example 206, 2,2-dicyclohexyl-N-{(3aS,4S,6aR)-2-[(2-phenylethyl)sulfonyl]octahydrocyclopenta[c]pyrrol-4-yl}acetamide]",> 100 µM,
"Fc1ccc(CN[C@H]2CC[C@@H]3CN(Cc4cccc(C(F)(F)F)c4)C[C@@H]32)cc1 [Example 287, (3aR,4S,6aS)—N-(4-fluorobenzyl)-2-[3-(trifluoromethyl)benzyl]octahydrocyclopenta[c]pyrrol-4-amine]",3.09 µM,
"CC[C@H](C)[C@H](NC)C(=O)N[C@H]1CC[C@@H]2CN(S(=O)(=O)c3ccc(C(F)(F)F)cc3)C[C@@H]21 [Example 411, N^2-methyl-N^1-((3aR,4S,6aS)-2-{[4-(trifluoromethyl)phenyl]sulfonyl}octahydrocyclopenta[c]pyrrol-4-yl)-L-isoleucinamide]",4.22 µM,
"O=[N+]([O-])c1ccccc1S(=O)(=O)N[C@H]1CC[C@@H]2CN(S(=O)(=O)c3ccc(C(F)(F)F)cc3)C[C@@H]21 [Example 299, 2-nitro-N-((3aR,4S,6aS)-2-{[4-(trifluoromethyl)phenyl]sulfonyl}octahydrocyclopenta[c]pyrrol-4-yl)benzenesulfonamide]",3.68 µM,
"Cc1ccccc1CCCN1C[C@H]2CC[C@H](NC(=O)C(c3ccccc3)C(C)C)[C@H]2C1 (stereo partly drawn) [Example 108, 3-methyl-N-{(3aR,4S,6aS)-2-[3-(2-methylphenyl)propyl]octahydrocyclopenta[c]pyrrol-4-yl}-2-phenylbutanamide]",,11.3 µM
"CN[C@@H](CC(C)C)C(=O)N1C[C@H]2CC[C@H](NS(=O)(=O)c3cccc(C(F)(F)F)c3)[C@H]2C1 [Example 558, N-[(3aR,4S,6aS)-2-(N-methyl-L-leucyl)octahydrocyclopenta[c]pyrrol-4-yl]-3-(trifluoromethyl)benzenesulfonamide]",4.88 µM,
"CC(C)(C)OC(=O)N1CCC[C@H]1C(=O)N[C@H]1CC[C@@H]2CN(S(=O)(=O)c3cccc(C(F)(F)F)c3)C[C@@H]21 [Example 271, (S)-tert-butyl 2-((3aR,4S,6aS)-2-(3-(trifluoromethyl)phenylsulfonyl)octahydrocyclopenta[c]pyrrol-4-ylcarbamoyl)pyrrolidine-1-carboxylate]",3.41 µM,

# Second part, the compound after the results:
IC50 [1],IC50 (3 minute pre-incubation with compound (*)),SMILES
1.94 µM,,"CCC[C@H](NC)C(=O)N[C@H]1CC[C@@H]2CN(S(=O)(=O)c3cc(C(F)(F)F)ccc3Cl)C[C@@H]21 [Example 553, N^1-((3aR,4S,6aS)-2-{[2-chloro-5-(trifluoromethyl)phenyl]sulfonyl}octahydrocyclopenta[c]pyrrol-4-yl)-N^2-methyl-L-norvalinamide]"
0.69 µM,,"CC[C@H](C)[C@@H](C(=O)N[C@@H]1CC[C@H]2CN(S(=O)(=O)c3cccc(C(F)(F)F)c3)C[C@H]21)N(C)C(=O)OC(C)(C)C [Example 334, tert-butyl methyl((2S,3S)-3-methyl-1-oxo-1-((3aS,4R,6aR)-2-(3-(trifluoromethyl)phenylsulfonyl)octahydrocyclopenta[c]pyrrol-4-ylamino)pentan-2-yl)carbamate]"
1.54 µM,,"CN([C@H]1CC[C@@H]2CN(S(=O)(=O)c3ccc(C(F)(F)F)cc3)C[C@@H]21)S(=O)(=O)c1ccccc1[N+](=O)[O-] [Example 300, N-methyl-2-nitro-N-((3aR,4S,6aS)-2-{[4-(trifluoromethyl)phenyl]sulfonyl}octahydrocyclopenta[c]pyrrol-4-yl)benzenesulfonamide]"
2.43 µM,,"CN[C@@H](CC(C)(C)C)C(=O)N(C)[C@H]1CC[C@@H]2CN(S(=O)(=O)c3ccc(C(F)(F)F)cc3)C[C@@H]21 [Example 437, N^1,N^2,4-trimethyl-N^1-((3aR,4S,6aS)-2-{[4-(trifluoromethyl)phenyl]sulfonyl}octahydrocyclopenta[c]pyrrol-4-yl)-L-leucinamide]"
1.3 µM,,"O=S(=O)(N[C@@H]1CC[C@H]2CN(Cc3ccccc3)C[C@H]21)c1cccc(C(F)(F)F)c1 [Example 190, N-[(3aS,4R,6aR)-2-benzyloctahydrocyclopenta[c]pyrrol-4-yl]-3-(trifluoromethyl)benzenesulfonamide]"
0.82 µM,,"CC(C)(C)C[C@H](NC1CCCC1)C(=O)N[C@H]1CC[C@@H]2CN(S(=O)(=O)c3ccc(C(F)(F)F)cc3)C[C@@H]21 [Example 501, N^2-cyclopentyl-4-methyl-N^1-((3aR,4S,6aS)-2-{[4-(trifluoromethyl)phenyl]sulfonyl}octahydrocyclopenta[c]pyrrol-4-yl)-L-leucinamide]"
0.8 µM,,"CCN[C@@H](CC(C)C)C(=O)N[C@H]1CC[C@@H]2CN(S(=O)(=O)c3cccc(C(F)(F)F)c3)C[C@@H]21 [Example 383, N^2-ethyl-N^1-((3aR,4S,6aS)-2-{[3-(trifluoromethyl)phenyl]sulfonyl}octahydrocyclopenta[c]pyrrol-4-yl)-L-leucinamide]"
0.8 µM,,"CC(C)(C)C[C@H](N)C(=O)N[C@H]1CC[C@@H]2CN(S(=O)(=O)c3ccc(C(F)(F)F)cc3)C[C@@H]21 [Example 419, 4-methyl-N^1-((3aR,4S,6aS)-2-{[4-(trifluoromethyl)phenyl]sulfonyl}octahydrocyclopenta[c]pyrrol-4-yl)-L-leucinamide]"
0.38 µM,,"O=S(=O)(c1cccc(C(F)(F)F)c1)N1C[C@H]2CC[C@H](NCc3ccc(F)cc3)[C@H]2C1 [Example 286, (3aR,4S,6aS)—N-(4-fluorobenzyl)-2-{[3-(trifluoromethyl)phenyl]sulfonyl}octahydrocyclopenta[c]pyrrol-4-amine]"
0.5 µM,,"CC(C)C[C@H](NC(=O)OC(C)(C)C)C(=O)N[C@H]1CC[C@@H]2CN(Cc3cccc(C(F)(F)F)c3)C[C@@H]21 [Example 306, tert-butyl(S)-4-methyl-1-oxo-1-((3aR,4S,6aS)-2-(3-(trifluoromethyl)benzyl)octahydrocyclopenta[c]pyrrol-4-ylamino)pentan-2-ylcarbamate]"
0.72 µM,,"CC(C)C[C@H](NCC(C)(C)C)C(=O)N[C@@H]1CC[C@H]2CN(S(=O)(=O)c3cccc(C(F)(F)F)c3)C[C@H]21 [Example 254, N^2-neopentyl-N^1-((3aS,4R,6aR)-2-{[3-(trifluoromethyl)phenyl]sulfonyl}octahydrocyclopenta[c]pyrrol-4-yl)-L-leucinamide]"
0.55 µM,,"CCC[C@H](NCC(C)(C)C)C(=O)N[C@@H]1CC[C@H]2CN(S(=O)(=O)c3cccc(C(F)(F)F)c3)C[C@H]21 [Example 255, N^2-neopentyl-N^1-((3aS,4R,6aR)-2-{[3-(trifluoromethyl)phenyl]sulfonyl}octahydrocyclopenta[c]pyrrol-4-yl)-L-norvalinamide]"
1.68 µM,,"CC(C)C[C@@H](C(=O)N[C@@H]1CC[C@H]2CN(Cc3ccccc3)C[C@H]21)N(C)CC(C)(C)C [Example 510, N^1-[(3aS,4R,6aR)-2-benzyloctahydrocyclopenta[c]pyrrol-4-yl]-N^2-methyl-N^2-neopentyl-L-leucinamide]"
0.6 µM,,"O=S(=O)(N[C@H]1CC[C@H]2CN(Cc3cccc(C(F)(F)F)c3)C[C@H]21)c1cccc(C(F)(F)F)c1 (single isomer, unassigned) [Example 186, 3-(trifluoromethyl)-N-{(3aS*,4S*,6aR*)-2-[3-(trifluoromethyl)benzyl]octahydrocyclopenta[c]pyrrol-4-yl}benzenesulfonamide]"
1.21 µM,,"CC(C)N[C@@H](CC(C)(C)C)C(=O)N[C@H]1CC[C@@H]2CN(S(=O)(=O)c3cc(C(F)(F)F)ccc3Cl)C[C@@H]21 [Example 486, N^1-((3aR,4S,6aS)-2-{[2-chloro-5-(trifluoromethyl)phenyl]sulfonyl}octahydrocyclopenta[c]pyrrol-4-yl)-N^2-isopropyl-4-methyl-L-leucinamide]"
0.64 µM,,"CC(C)C[C@H](NCC(C)(C)C)C(=O)N[C@H]1CC[C@@H]2CN(S(=O)(=O)c3cccc(C(F)(F)F)c3)C[C@@H]21 [Example 252, N^2-neopentyl-N^1-((3aR,4S,6aS)-2-{[3-(trifluoromethyl)phenyl]sulfonyl}octahydrocyclopenta[c]pyrrol-4-yl)-L-leucinamide]"
